# Assay results taken from patent publication US8168651B2, “Protein kinase modulators” (Cylene Pharmaceuticals, Inc., priority 2008, dated 2012).
# pIC50: −log10 of the molar value. Where two headings read alike, the source gives them in different places.
# Legend:
# [1] = target: recombinant human PIM1 (Homo sapiens (Human), UniProt P11309); test: PIM-1 kinase activity in cell-free in vitro assay; format: biochemical; settings: for inhibition at 0.5 µM: read-out: PIM-1: % inh 500 nM
# [2] = test system: HCT-116 human colorectal carcinoma cells; test: Cell-proliferation assay using Alamar Blue dye; format: cell-based;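 further: cells exposed to compound for about 4 days, then Alamar Blue added and dye fluorescence read after about 4 h, compared with medium-only control wells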
# [3] = target: recombinant human CK2 (Homo sapiens (Human), UniProt P68400); test: CK2 assay (cell-free, 33P-ATP filter plate); format: biochemical; settings: for inhibition at 5 µM: read-out: CK2 % inhibition 5 uM, 5 uM
# [4] = Homo sapiens, HCT-116, read-out: HCT-116 (uM), cell proliferation modulatory activity, HCT-116, second column
# [5] = 500 nM compound, cell-free assay
# [6] = Homo sapiens, HCT-116, HCT-116, first column, read-out: HCT-116 (uM), cell proliferation modulatory activity
# [7] = Homo sapiens, HCT-116, read-out: HCT-116 (uM), cell proliferation modulatory activity, HCT-116, first column
# [8] = Homo sapiens, HCT-116, HCT-116, second column, read-out: HCT-116 (uM), cell proliferation modulatory activity
# [9] = Homo sapiens, HCT-116, read-out: HCT-116 (uM), cell proliferation modulatory activity, HCT-116, second HCT-116 column (c8)
# recombinant human CK2, sequence (P68400 whole entry): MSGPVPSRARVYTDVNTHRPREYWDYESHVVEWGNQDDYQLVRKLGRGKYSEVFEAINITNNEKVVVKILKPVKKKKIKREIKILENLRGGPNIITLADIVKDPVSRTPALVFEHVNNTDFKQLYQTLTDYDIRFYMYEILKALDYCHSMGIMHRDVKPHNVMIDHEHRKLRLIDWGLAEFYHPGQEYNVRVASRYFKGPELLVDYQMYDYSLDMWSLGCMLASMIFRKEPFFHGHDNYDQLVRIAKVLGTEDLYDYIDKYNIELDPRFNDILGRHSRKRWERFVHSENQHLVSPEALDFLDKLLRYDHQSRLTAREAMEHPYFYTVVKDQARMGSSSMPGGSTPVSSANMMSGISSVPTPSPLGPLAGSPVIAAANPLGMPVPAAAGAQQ
# recombinant human CK2, sequence (P67870 whole entry partner): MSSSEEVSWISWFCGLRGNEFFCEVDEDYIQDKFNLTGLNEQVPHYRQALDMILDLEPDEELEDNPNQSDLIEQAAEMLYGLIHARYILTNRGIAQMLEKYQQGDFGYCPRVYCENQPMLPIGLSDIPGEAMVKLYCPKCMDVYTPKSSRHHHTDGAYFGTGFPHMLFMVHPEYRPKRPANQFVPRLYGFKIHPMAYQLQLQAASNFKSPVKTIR
# recombinant human PIM1, sequence (P11309 whole entry): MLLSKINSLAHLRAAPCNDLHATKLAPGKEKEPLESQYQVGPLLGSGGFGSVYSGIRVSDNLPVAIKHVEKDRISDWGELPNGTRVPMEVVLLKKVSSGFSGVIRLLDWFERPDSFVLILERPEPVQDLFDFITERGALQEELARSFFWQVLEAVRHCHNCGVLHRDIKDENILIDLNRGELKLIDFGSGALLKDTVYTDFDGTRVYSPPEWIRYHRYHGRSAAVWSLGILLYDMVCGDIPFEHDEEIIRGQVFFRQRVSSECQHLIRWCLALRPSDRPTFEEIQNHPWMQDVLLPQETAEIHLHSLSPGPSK
structure (smiles),measurement,setting,value
O=C(O)c1ccc2c(c1)nc(Nc1ccc3cc[nH]c3c1)c1ccsc12,inhibition at 0.5 µM,"[1]; 500 nM compound, cell-free",47.2%
same,IC50,[2]; [4],> 10 µM
CCc1cccc(Nc2nc3cc(C(=O)O)ccc3c3sccc23)c1,inhibition at 0.5 µM,"[1]; 500 nM compound, cell-free",51.6%
same,pIC50,[1]; cell-free,6.09
same,IC50,[2]; [4],> 10 µM
O=C(O)c1ccc2c(c1)nc(Nc1cccc(I)c1)c1ccsc12,inhibition at 0.5 µM,"[1]; 500 nM compound, cell-free",40.5%
same,IC50,[2]; [4],> 10 µM
O=C(O)c1ccc2c(c1)nc(Nc1cccc(F)c1F)c1ccsc12,inhibition at 0.5 µM,"[1]; 500 nM compound, cell-free",72.9%
same,pIC50,[1]; cell-free,6.07
same,IC50,[2]; [4],> 10 µM
O=C(O)c1ccc2c(c1)nc(Nc1cc(F)cc(C(F)(F)F)c1)c1ccsc12,inhibition at 0.5 µM,"[1]; 500 nM compound, cell-free",82.6%
same,pIC50,[1]; cell-free,6.47
same,IC50,[2]; [4],> 10 µM
O=C(O)c1cc(F)cc(Nc2nc3cc(C(=O)O)ccc3c3sccc23)c1,inhibition at 0.5 µM,"[1]; 500 nM compound, cell-free",51%
same,pIC50,[1]; cell-free,6.28
same,IC50,[2]; [4],> 10 µM
O=C(O)c1ccc2c(c1)nc(Nc1cc(F)ccc1F)c1ccsc12,inhibition at 0.5 µM,"[1]; 500 nM compound, cell-free",67.1%
same,pIC50,[1]; cell-free,6.51
same,IC50,[2]; [4],> 10 µM
O=C(O)c1ccc2c(c1)nc(Nc1cccc(S(=O)(=O)NC3CC3)c1)c1ccsc12,inhibition at 0.5 µM,"[1]; 500 nM compound, cell-free",75.4%
same,pIC50,[1]; cell-free,6.25
same,IC50,[2]; [4],> 10 µM
Fc1cc(Cl)cc(Nc2nc3cc(-c4nnn[nH]4)ccc3c3sccc23)c1,inhibition at 0.5 µM,"[1]; 500 nM compound, cell-free",82%
same,pIC50,[1]; cell-free,6.25
same,IC50,[2]; [4],> 10 µM
C#Cc1cccc(Nc2nc3cc(-c4nnn[nH]4)ccc3c3sccc23)c1,inhibition at 0.5 µM,"[1]; 500 nM compound, cell-free",64.6%
same,pIC50,[1]; cell-free,6.15
same,IC50,[2]; [4],> 10 µM
O=C(O)c1ccc2c(c1)nc(Nc1cc(-c3ccccc3)[nH]n1)c1ccncc12,inhibition at 0.5 µM,[1]; [5],56%
same,pIC50,[1]; cell-free assay,< 5.96
same,IC50,"[2]; Homo sapiens, HCT-116, second HCT-116 column (c8), read-out: HCT-116 (uM) cell proliferation modulatory activity",> 10 µM
O=c1[nH]c2cc(-c3nnn[nH]3)ccc2c2cnccc12 [drawing 568],inhibition at 1 µM,"[3]; at 1 μM, read-out: CK2 Inhibition",46%
N#Cc1ccc2c(c1)nc(Cl)c1ccsc12 [drawing 587],inhibition at 5 µM,[3],63%
c1ccc(Nc2nc3ccccc3c3sccc23)cc1 [drawing 588],inhibition at 5 µM,[3],0%
CN(C)CCNc1nc2ccccc2c2sccc12 [drawing 589],inhibition at 5 µM,[3],0%
COC(=O)c1ccc2c(c1)nc(Cl)c1ccsc12 [drawing 1375],inhibition at 0.5 µM,"[1]; 500 nM compound, cell-free",-30%
same,IC50,[2]; [6],10 µM
O=C(O)c1ccc2c(c1)nc(OCCCO)c1ccccc12 [drawing 1388],inhibition at 0.5 µM,"[1]; 500 nM compound, cell-free",1.05%
same,IC50,[2]; [6],10 µM
COC(=O)c1ccc2c(c1)[nH]c(=O)c1ccncc12 [drawing 1390],inhibition at 0.5 µM,"[1]; 500 nM compound, cell-free",0.802%
same,IC50,[2]; [7],10 µM
CN(C)CCNc1nc2cc(C(=O)O)ccc2c2ccccc12 [drawing 1391],inhibition at 0.5 µM,"[1]; 500 nM compound, cell-free",35%
same,IC50,[2]; [7],10 µM
O=C(O)c1ccc2c(c1)nc(Nc1ccccc1)c1ccccc12 [drawing 1394],inhibition at 0.5 µM,"[1]; 500 nM compound, cell-free",28.1%
same,IC50,[2]; [7],10 µM
N#Cc1ccc2c(c1)nc(Cl)c1ccsc12 [drawing 1398],inhibition at 0.5 µM,"[1]; 500 nM compound, cell-free",-20.2%
same,IC50,[2]; [6],10 µM
c1ccc(Nc2nc3ccccc3c3sccc23)cc1 [drawing 1399],inhibition at 0.5 µM,"[1]; 500 nM compound, cell-free",-22%
same,IC50,[2]; [6],10 µM
CN(C)CCNc1nc2ccccc2c2sccc12 [drawing 1400],inhibition at 0.5 µM,"[1]; 500 nM compound, cell-free",-24.2%
same,IC50,[2]; [6],2.3 µM
O=C(O)c1ccc2c(c1)nc(N1CCOCC1)c1ccsc12 [drawing 1401],inhibition at 0.5 µM,"[1]; 500 nM compound, cell-free",35.7%
same,IC50,[2]; [6],10 µM
CN(C)CCNc1nc2cc(C#N)ccc2c2sccc12 [drawing 1429],inhibition at 0.5 µM,"[1]; 500 nM compound, cell-free",-3.84%
same,IC50,[2]; [6],0.4 µM
N#Cc1ccc2c(c1)nc(Nc1ccccc1)c1ccsc12 [drawing 1431],inhibition at 0.5 µM,"[1]; 500 nM compound, cell-free",-22.3%
same,IC50,[2]; [6],10 µM
NC(=O)c1ccc2c(c1)nc(Nc1ccccc1)c1ccsc12 [drawing 1432],inhibition at 0.5 µM,"[1]; 500 nM compound, cell-free",-38.1%
same,IC50,[2]; [8],8.7 µM
O=c1[nH]c(-c2ccc3c(c2)nc(Nc2ccccc2)c2ccsc23)no1 [drawing 1434],inhibition at 0.5 µM,"[1]; 500 nM compound, cell-free",5.78%
same,IC50,[2]; [8],10 µM
O=c1[nH]c2cc(-c3nnn[nH]3)ccc2c2cnccc12 [drawing 1444],inhibition at 0.5 µM,"[1]; 500 nM compound, cell-free",3.3%
same,IC50,[2]; [8],15 µM
Cc1cc(CNC(=O)c2cccc(Nc3nc4cc(-c5nnn[nH]5)ccc4c4sccc34)c2)no1 [drawing 1507],inhibition at 0.5 µM,"[1]; 500 nM compound, cell-free",37.6%
same,IC50,[2]; [4],> 10 µM
Cc1cc(CNC(=O)c2cccc(Nc3nc4cc(-c5nnn[nH]5)ccc4c4sccc34)c2)no1 [drawing 1508],PIM-1: % inh 500 nM,"[1]; 500 nM compound, cell-free",55.402%
same,pIC50,[1]; cell-free,6.24
same,IC50,"[2]; read-out: HCT-116 (uM), cell proliferation modulatory activity, HCT-116",> 10 µM
O=C(O)c1ccc2c(c1)nc(NCCc1ccccc1)c1ccncc12 [drawing 1511],inhibition at 0.5 µM,"[1]; 500 nM compound, cell-free",80.9%
same,pIC50,[1]; cell-free,6.27
same,IC50,[2]; [4],> 10 µM
O=C(O)c1ccc2c(c1)nc(NCc1ccccc1)c1ccncc12 [drawing 1557],inhibition at 0.5 µM,"[1]; 500 nM compound, cell-free",44.4%
same,pIC50,[1]; cell-free,6.17
same,IC50,[2]; [4],> 10 µM
CCOc1ncc2c(n1)c(NC1CC1)nc1cc(C(=O)O)ccc12 [drawing 1615],inhibition at 0.5 µM,[1]; [5],11.1%
same,IC50,[2]; [9],> 10 µM
O=C(O)c1ccc2c(c1)nc(NCc1cccnc1)c1nc(NC3CC3)ncc12 [drawing 1625],inhibition at 0.5 µM,[1]; [5],26.9%
same,IC50,[2]; [9],> 10 µM
O=C(O)c1ccc2c(c1)nc(NCc1ccccc1)c1nc(NC3CC3)ncc12 [drawing 1626],inhibition at 0.5 µM,[1]; [5],25.3%
same,IC50,[2]; [9],> 10 µM
Cc1cc(Nc2ncc3c(n2)c(Nc2ccc(F)c(Cl)c2)nc2cc(C(=O)O)ccc23)[nH]n1 [drawing 1635],inhibition at 0.5 µM,[1]; [5],66.1%
same,IC50,[2]; [9],> 10 µM
O=C(O)c1ccc2c(c1)nc(NC1CC1)c1ccncc12 [drawing 1639],inhibition at 0.5 µM,[1]; [5],28.1%
same,IC50,[2]; [9],> 10 µM
Nc1ncc2c(n1)c(NC1CC1)nc1cc(C(=O)O)ccc12 [drawing 1644],inhibition at 0.5 µM,[1]; [5],60.1%
same,pIC50,[1]; cell-free assay,6.36
same,IC50,[2]; [9],> 10 µM
